In patent publication EP1157002B1, “1,2,3,4-TETRAHYDRO-1-NAPHT[…] USEFUL IN THERAPY” (Pfizer Limited, priority 1999, dated 2000) one finds IC50 data, which are given here for four compounds.

Counter-ions that a name gives are not always drawn. Like-named read-outs stand apart in the source and are kept apart here.

This experiment deals with T1, human serotonin transporter (hSERT) (Homo sapiens, UniProt P31645).
T1 construct: expressed in transfected cells; host or cells: HEK-293 (human embryonic kidney cells), stably transfected
T1 sequence (P31645 whole entry): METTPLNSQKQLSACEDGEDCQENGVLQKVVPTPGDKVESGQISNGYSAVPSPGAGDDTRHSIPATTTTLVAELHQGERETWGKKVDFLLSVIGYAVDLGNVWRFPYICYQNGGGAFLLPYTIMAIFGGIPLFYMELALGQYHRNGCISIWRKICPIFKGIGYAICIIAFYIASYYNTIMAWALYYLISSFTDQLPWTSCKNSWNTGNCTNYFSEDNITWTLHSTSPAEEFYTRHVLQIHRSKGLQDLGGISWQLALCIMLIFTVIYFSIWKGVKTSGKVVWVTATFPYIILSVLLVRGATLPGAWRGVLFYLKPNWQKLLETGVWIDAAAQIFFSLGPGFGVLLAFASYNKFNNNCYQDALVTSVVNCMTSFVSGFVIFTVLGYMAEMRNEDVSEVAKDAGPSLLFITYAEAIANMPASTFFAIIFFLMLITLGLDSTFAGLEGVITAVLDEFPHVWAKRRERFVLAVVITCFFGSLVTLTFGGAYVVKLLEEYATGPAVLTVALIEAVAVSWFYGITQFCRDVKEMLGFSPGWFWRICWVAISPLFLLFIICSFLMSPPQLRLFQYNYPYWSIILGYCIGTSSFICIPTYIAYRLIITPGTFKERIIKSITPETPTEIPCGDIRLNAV
As to the kind of experiment: Test A: uptake of 3H-serotonin into human embryonic kidney cells (HEK-293) expressing the human serotonin transporter. Type of experiment: cell-based. How it is done:
Uptake of ^3H-biogenic amines into human embryonic kidney cells expressing the human serotonin (5-HT), noradrenalin or dopamine transporter
Human embryonic kidney cells (HEK-293) stably transfected with either the human serotonin transporter (hSERT), noradrenalin transporter (hNET) or dopamine transporter (hDAT) were cultured under standard cell culture techniques (cells were grown at 37°C and 5% CO2 in DMEM-culture media (supplemented with 10% dialysed foetal calf serum (FCS), 2mM 1-glutamine and 250µg/ml geneticin)). Cells were harvested for the assay to yield a cell suspension of 750,000 cells/ml.
Assays were carried out in 96-well filter bottom plates. Cells (7500 cells/assay well) were pre-incubated in standard assay buffer containing either test compound, standard inhibitor or compound vehicle (1% DMSO) for 5 minutes. Reactions were started by addition of either ^3H-Serotonin, ^3H-Noradrenaline or ^3H-Dopamine substrates. All reactions were carried out at room temperature in a shaking incubator. Incubation times were 5 minutes for the hSERT and hDAT assays and 15 minutes for the hNET assay. Reactions were terminated by removal of the reaction mixture using a vacuum manifold followed by rapid washing with ice cold assay buffer. The quantity of ^3H-substrate incorporated into the cells was then quantified.
Assay plates were dried in a microwave oven, scintillation fluid added, and radioactivity measured. Potency of test compounds was quantified as IC50 values (concentration of test compound required to inhibit the specific uptake of radiolabelled substrate into the cells by 50%).
Standard Assay Buffer Composition: • Trizma hydrochloride (26mM) • NaCl (124mM) • KCl (4.5mM) • KH2PO4 (1.2mM) • MgCl2.6H2O (1.3mM) • Ascorbic acid (1.136mM) • Glucose (5.55mM) • pH 7.40 • CaCl2 (2.8mM) • Pargyline (100µM)
Note: The pH of the buffer was adjusted to 7.40 with 1M NaOH before addition of CaCl2 and pargyline.

Where [1] appears, read: inhibition of the up-take of serotonin by human serotonin transporters, HEK-293 hSERT cells, 3H-5HT (50nM), incubation 5 minutes, room temperature, read-out: IC50 value.

Turning to `CN[C@H]1CC[C@@H](c2ccc(Cl)c(Cl)c2)c2ccc(-c3ncnn3C)cc21` [Example 56, Cis-(1S)-N-methyl-7-(3-(N(2)methyl-1,2,4-triazolyl)-4-(3,4-dichlorophenyl)-1,2,3,4-tetrahydro-1-naphthalenamine hydrochloride], the IC50 under setting [1] was not above 100 nM.
Take `CN[C@H]1CC[C@@H](c2ccc(Cl)c(Cl)c2)c2ccc(CNC(N)=O)cc21` [Example 37, Cis-(1S)-N-methyl-7-((N-aminocarboxy)aminomethyl)-4-(3,4-dichlorophenyl)-1,2,3,4-tetrahydro-1-naphthalenamine hydrochloride]: under setting [1], the IC50 is not above 100 nM.
Still for that read-out and setting: for `CN[C@H]1CC[C@@H](c2ccc(Cl)c(Cl)c2)c2ccc(-c3ncn[nH]3)cc21` [Example 55, Cis-(1S)-N-methyl-7-(3-(1,2,4-triazolyl))-4-(3,4-dichlorophenyl)-1,2,3,4-tetrahydro-1-naphthalenamine hydrochloride] the value was not above 100 nM.
In turn, `CN[C@H]1CC[C@@H](c2ccc(Cl)c(Cl)c2)c2ccc(CS(C)(=O)=O)cc21` [Example 74, Cis-(1S)-N-methyl-7-((methylsulphonyl)methyl)-4-(3,4-dichlorophenyl)-1,2,3,4-tetrahydro-1-naphthalenamine] registered a 50% inhibitory concentration (IC50) not above 100 nM.
